Test [1] deals with Coagulation factor X (Homo sapiens) (UniProt P00742). The experiment in a line: Inhibition of factor 10a in human plasma. Format: cell-free.
Test [2] addresses T1, Coagulation factor V (Homo sapiens, UniProt P12259). The test is described as follows: Inhibition of factor 5a-mediated prothrombin activation in human plasma at 100 uM by prothrombinase assay.
Test [3] addresses T1, Coagulation factor V. The experiment in a line: Inhibition of human recombinant factor 5a C2 domain binding to immobilized phospholipid by surface plasmon resonance assay. (In general: Surface plasmon resonance follows binding to a sensor surface in real time, without labels.)
Test [4] concerns the target Coagulation factor X (Homo sapiens) (UniProt P00742). The experiment in a line: Inhibition of calcium-dependent membrane binding activity of factor 10a.
Test [5] addresses Prothrombin (Homo sapiens) (UniProt P00734). The experiment in a line: Inhibition of calcium-dependent membrane binding activity of prothrombin.
For test [6], the target named is T1, Coagulation factor V. The test is described as follows: Inhibition of human factor 5a light chain binding to immobilized phospholipid by surface plasmon resonance assay.
In test [7] the target is T1, Coagulation factor V. The test is described as follows: Inhibition of factor 5a-mediated prothrombin activation in human plasma at 50 uM in presence of 40 mg/ml albumin. Type of test: cell-free. Also noted: scale not given: the % may be the effect or the level left.
In test [8] the target is T1, Coagulation factor V. The experiment in a line: Inhibition of factor 5a-mediated prothrombin activation in human plasma by prothrombinase assay. Type of test: cell-free.
Test [9] deals with Coagulation factor VIII (Homo sapiens, UniProt P00451). The experiment in a line: Inhibition of human factor 8 binding to immobilized phospholipid by surface plasmon resonance assay.

SMILES strings stand for the structures. Activity calls are given as the source filed them. The rule behind the calls is not given here. Some results are limits rather than exact numbers.

T1 sequence (P12259 29-737 limits assumed): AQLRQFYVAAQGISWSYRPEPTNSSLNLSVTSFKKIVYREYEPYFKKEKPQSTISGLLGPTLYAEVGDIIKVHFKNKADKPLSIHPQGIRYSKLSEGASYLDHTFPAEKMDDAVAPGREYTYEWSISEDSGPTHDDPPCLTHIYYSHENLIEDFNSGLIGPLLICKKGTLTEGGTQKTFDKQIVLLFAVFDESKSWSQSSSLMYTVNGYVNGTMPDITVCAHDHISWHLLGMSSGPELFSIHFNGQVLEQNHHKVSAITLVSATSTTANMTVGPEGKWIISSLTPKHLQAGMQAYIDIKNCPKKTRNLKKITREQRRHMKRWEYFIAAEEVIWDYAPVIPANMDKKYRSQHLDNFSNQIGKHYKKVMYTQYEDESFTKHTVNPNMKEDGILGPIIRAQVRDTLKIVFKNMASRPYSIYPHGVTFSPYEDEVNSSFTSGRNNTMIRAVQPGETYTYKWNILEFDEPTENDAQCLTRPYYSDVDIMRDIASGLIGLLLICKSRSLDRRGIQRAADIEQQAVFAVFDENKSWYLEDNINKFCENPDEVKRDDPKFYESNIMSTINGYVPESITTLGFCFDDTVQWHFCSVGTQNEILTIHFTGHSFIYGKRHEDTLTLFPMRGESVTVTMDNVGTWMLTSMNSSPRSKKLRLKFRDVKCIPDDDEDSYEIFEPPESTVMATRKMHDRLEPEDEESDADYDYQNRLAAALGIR
T1 sequence (P12259 1574-2224 limits assumed): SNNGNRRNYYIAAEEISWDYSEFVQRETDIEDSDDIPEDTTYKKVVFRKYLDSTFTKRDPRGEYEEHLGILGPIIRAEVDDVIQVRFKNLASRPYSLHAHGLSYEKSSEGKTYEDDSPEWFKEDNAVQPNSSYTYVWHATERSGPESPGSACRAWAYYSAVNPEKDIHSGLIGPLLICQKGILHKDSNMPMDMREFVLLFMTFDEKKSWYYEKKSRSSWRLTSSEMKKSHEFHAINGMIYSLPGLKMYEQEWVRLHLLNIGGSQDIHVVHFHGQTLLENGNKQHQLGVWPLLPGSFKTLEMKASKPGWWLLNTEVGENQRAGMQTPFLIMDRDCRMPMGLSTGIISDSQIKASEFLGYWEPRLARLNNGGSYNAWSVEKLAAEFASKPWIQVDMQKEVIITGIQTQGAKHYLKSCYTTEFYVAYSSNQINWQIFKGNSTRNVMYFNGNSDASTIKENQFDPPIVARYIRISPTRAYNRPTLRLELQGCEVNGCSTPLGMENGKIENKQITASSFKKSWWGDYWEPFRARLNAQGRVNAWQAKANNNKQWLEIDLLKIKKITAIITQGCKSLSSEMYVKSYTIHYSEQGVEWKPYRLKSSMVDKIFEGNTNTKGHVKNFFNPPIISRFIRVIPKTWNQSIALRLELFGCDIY
Chain of Coagulation factor X (Homo sapiens) (P00742 41-179 limits assumed): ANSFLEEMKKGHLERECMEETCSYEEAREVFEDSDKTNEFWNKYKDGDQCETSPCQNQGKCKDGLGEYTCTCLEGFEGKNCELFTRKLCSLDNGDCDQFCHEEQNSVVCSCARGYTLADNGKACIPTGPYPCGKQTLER
Chain of Coagulation factor X (Homo sapiens) (P00742 235-488 limits assumed): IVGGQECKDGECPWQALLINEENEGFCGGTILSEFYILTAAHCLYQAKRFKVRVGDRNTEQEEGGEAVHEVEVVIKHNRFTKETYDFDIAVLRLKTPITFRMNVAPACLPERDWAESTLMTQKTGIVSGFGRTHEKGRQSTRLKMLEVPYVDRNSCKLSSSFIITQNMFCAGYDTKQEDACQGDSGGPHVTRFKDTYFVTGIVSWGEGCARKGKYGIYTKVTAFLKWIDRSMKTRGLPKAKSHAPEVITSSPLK
Chain of Coagulation factor VIII (P00451 20-759 limits assumed): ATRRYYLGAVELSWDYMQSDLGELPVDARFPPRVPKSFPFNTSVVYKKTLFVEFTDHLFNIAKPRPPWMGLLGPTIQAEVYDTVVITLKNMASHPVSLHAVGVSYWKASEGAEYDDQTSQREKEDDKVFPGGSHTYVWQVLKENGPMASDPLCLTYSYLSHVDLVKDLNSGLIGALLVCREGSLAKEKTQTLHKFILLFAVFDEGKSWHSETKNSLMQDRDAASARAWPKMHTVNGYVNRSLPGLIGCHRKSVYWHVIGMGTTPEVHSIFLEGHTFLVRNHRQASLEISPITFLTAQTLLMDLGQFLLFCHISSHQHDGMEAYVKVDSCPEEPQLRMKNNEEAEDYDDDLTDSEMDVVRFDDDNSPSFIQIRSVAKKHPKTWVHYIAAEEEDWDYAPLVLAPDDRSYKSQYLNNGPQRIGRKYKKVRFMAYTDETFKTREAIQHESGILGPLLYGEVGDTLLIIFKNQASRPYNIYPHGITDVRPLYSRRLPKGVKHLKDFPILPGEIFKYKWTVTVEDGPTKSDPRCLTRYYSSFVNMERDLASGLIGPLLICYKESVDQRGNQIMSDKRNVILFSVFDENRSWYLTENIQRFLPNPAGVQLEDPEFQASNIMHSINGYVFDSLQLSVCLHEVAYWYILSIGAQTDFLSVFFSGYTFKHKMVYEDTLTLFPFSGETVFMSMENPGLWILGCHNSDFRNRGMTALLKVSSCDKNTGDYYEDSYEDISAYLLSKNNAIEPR
Chain of Coagulation factor VIII (P00451 1668-2351 limits assumed): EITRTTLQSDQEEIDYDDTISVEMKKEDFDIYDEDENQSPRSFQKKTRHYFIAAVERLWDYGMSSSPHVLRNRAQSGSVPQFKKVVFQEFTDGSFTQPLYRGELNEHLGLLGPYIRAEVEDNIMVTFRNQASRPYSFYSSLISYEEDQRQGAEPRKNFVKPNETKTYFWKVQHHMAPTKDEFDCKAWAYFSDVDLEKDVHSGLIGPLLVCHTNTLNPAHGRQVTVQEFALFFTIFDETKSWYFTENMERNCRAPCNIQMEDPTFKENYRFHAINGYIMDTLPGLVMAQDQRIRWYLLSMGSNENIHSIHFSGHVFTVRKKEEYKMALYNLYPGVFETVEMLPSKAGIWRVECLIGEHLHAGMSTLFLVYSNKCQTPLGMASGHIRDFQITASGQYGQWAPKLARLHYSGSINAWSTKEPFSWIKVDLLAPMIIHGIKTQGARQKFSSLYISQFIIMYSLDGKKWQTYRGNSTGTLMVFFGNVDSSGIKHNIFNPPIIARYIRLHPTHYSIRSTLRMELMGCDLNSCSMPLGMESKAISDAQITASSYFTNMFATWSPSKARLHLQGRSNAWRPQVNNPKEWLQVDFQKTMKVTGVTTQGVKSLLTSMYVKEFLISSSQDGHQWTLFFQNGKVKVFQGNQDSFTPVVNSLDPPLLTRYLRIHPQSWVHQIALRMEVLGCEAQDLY

As a reminder, the inhibition is the relative decrease from the control value, in per cent. For orientation: IC50 means the midpoint of a concentration-inhibition curve. `CCOc1cc(/C=C2/NC(=O)N(Cc3ccccc3F)C2=O)ccc1OCc1ccc(C(=O)O)cc1`: the outcome in test [1], in test [4] and in test [5] was inactive. Besides, in [2], the inhibition was above 99%. The IC50 in [3] was 3.51 µM; in [6], 2.5 µM; in [8], 18.6 µM. Besides, the Activity in [7] worked out at 25%.
Turning to `N=c1n(CCN2CCCCC2)c2ccccc2n1CC(O)COc1ccc(Cl)cc1Cl` (single isomer, unassigned), the result in test [1] and in test [5] was inactive. Further, the inhibition in test [2] was above 99%. In addition, the IC50 in [3] is 14 µM; in test [6] it was 15.7 µM; in [9], 7.8 µM; in [8], 32.4 µM.
Take `CC1=NN(c2ccc(Br)cc2)C(=O)/C1=C/c1ccc(-c2cccc(C(=O)O)c2)o1`: the outcome in [1] and in [4] was inactive. The compound further showed an inhibition in test [2] above 99%. In test [8], this compound registered an IC50 of 1.81 µM.
With `CC(C)NC[C@@H](O)Cn1c2c(c3ccccc31)CCc1c-2cnn1-c1ccccc1`, the result in test [1] and in test [4] was inactive. In [2], this compound returned an inhibition above 99%. This compound came in with an IC50 in test [8] of 3.8 µM.
For `COc1cc([N+](=O)[O-])ccc1-c1ccc(/C=C2\C(=O)NC(=O)N(c3ccc4c(c3)OCO4)C2=O)o1`, the outcome in [1], in test [4] and in [5] was inactive. The same compound had an inhibition in test [2] above 99%. The IC50 in [3] amounted to 5.53 µM; in test [6], 4.8 µM; in [8], 62.9 µM.
Regarding `O=C1NC(=O)N(c2ccccc2F)C(=O)/C1=C\c1cc(Cl)ccc1OCc1ccc([N+](=O)[O-])cc1`, the outcome in test [1] and in [5] was inactive. Besides, the inhibition in [2] was above 99%. Also, the IC50 amounted to 21.9 µM in test [3], 14.1 µM in test [6], 8.9 µM in test [9] and 38 µM in test [8].
Turning to `O=C(COc1ccc(Cl)cc1Cl)Nc1ccc(C(=O)Nc2ccccc2C(=O)O)cc1`, the result in test [1], in test [4] and in test [5] was inactive. For the same compound, the inhibition in [2] is above 99%. Besides, the IC50 was determined as 16.4 µM in test [3], 14.1 µM in [6] and 40.6 µM in [8].
`CC1=NN(c2cccc(C(=O)O)c2)C(=O)/C1=C\c1ccc(-c2ccc([N+](=O)[O-])cc2)o1`: the result in [1], in [4] and in [5] was inactive. For the same compound, in test [2], the inhibition was above 99%. Moreover, the IC50 was found to be 6.71 µM in test [3], 8.56 µM in test [6] and 9.19 µM in [8].
As for `Cc1cc(-c2ccc(/C=C3/C(=O)NN(c4cccc(Cl)c4)C3=O)o2)c([N+](=O)[O-])cc1C`, the outcome in test [1], in test [4] and in test [5] was inactive. This compound also had an inhibition in test [2] above 99%. For the same compound, the IC50 stood at 7.4 µM in [3], 8.55 µM in [6] and 8.95 µM in [8].

Values taken from ChEMBL document CHEMBL1147047, “Design of protein membrane interaction inhibitors by virtual ligand screening, proof of concept with the C2 domain of factor V” (Proc Natl Acad Sci U S A, 2007).
